This is an account of results in patent publication US11840686B2, “Modulation of prekallikrein (PKK) expression” (Ionis Pharmaceuticals, Inc., priority 2013, dated 2023).

Strand notation (5' to 3'): a small letter for the sugar, then the base; units joined by * are phosphorothioate-linked, units joined directly phosphodiester-linked; [ ] holds rarer units or linkages, { } end groups; capitals alone tell only the bases. e = 2'-O-(2-methoxyethyl) (MOE); k = constrained ethyl (cEt); [5mC] = 5-methylcytosine; d = 2'-deoxy (DNA)

The first series concerns human PKK mRNA. Nature of the series: Antisense inhibition of human PKK mRNA in HepaRG cells, 1,000 nM, MOE/deoxy/cEt oligonucleotides (Example 3). The series is classed as cell-based. To be noted: HepaRG cells, electroporation with 1,000 nM antisense oligonucleotide, approximately 24 hours, primer probe set RTS3454, relative to untreated control cells; experiment of Table 23. The essentials: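 HepaRG cells at 20,000 per well electroporated with 1,000 nM 16-mer MOE/cEt/deoxy gapmers (phosphorothioate, 5-methylcytosine). After about 24 h, PKK mRNA measured by qRT-PCR with primer probe set RTS3454, normalized to RIBOGREEN total RNA. Reported as percent inhibition versus untreated cells.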
For “547940 (eT*eT*kT*d[5mC]*dT*dT*dT*dG*dT*dG*dA*d[5mC]*dT*k[5mC]*kG*eA; antisense) [compound 547940]”, the “% inhibition” value was 71%.

On to “547941 (eG*eT*kG*dT*dG*d[5mC]*d[5mC]*dA*d[5mC]*dT*dT*dT*d[5mC]*kA*kG*eA; antisense) [compound 547941]”, for which the “% inhibition” value worked out at 66%.

Regarding “547944 (eA*e[5mC]*kT*dT*dG*dG*dT*dG*dT*dG*d[5mC]*d[5mC]*dA*k[5mC]*kT*eT; antisense) [compound 547944]”, the “% inhibition” value is reported as 54%. For the substance “547945 (eA*eA*k[5mC]*dT*dT*dG*dG*dT*dG*dT*dG*d[5mC]*d[5mC]*kA*k[5mC]*eT; antisense) [compound 547945]”, the “% inhibition” value is recorded as 62%.

Regarding “547949 (eG*eT*kG*dT*dT*dT*dT*d[5mC]*dT*dT*dG*dA*dG*kG*kA*eG; antisense) [compound 547949]”, the “% inhibition” value was found to be 6%. Regarding “547950 (eG*eG*kT*dG*dT*dT*dT*dT*d[5mC]*dT*dT*dG*dA*kG*kG*eA; antisense) [compound 547950]”, the “% inhibition” value is 49%. Regarding “547951 (eA*eG*kA*dT*dA*dT*dG*dG*dT*dG*dT*dT*dT*kT*k[5mC]*eT; antisense) [compound 547951]”, the “% inhibition” value amounted to 25%. Consider “547952 (e[5mC]*eA*kG*dA*dT*dA*dT*dG*dG*dT*dG*dT*dT*kT*kT*e[5mC]; antisense) [compound 547952]”, for which the “% inhibition” value amounted to 46%.

In the case of “547953 (e[5mC]*eT*kA*dT*dA*dT*d[5mC]*d[5mC]*dA*dG*dA*dT*dA*kT*kG*eG; antisense) [compound 547953]”, the “% inhibition” value is reported as 16%. The same measure, in the same setting: the value for “547954 (eT*eA*kA*dA*dA*dG*dG*d[5mC]*dT*dA*dT*dA*dT*k[5mC]*k[5mC]*eA; antisense) [compound 547954]” was 36%; that for “547956 (eG*eT*kT*dA*dA*dA*dA*dG*dG*d[5mC]*dT*dA*dT*kA*kT*e[5mC]; antisense) [compound 547956]” was 13%; that for “547957 (eG*eG*kT*dT*dA*dA*dA*dA*dG*dG*d[5mC]*dT*dA*kT*kA*eT; antisense) [compound 547957]” was 6%. Still for that read-out and setting: the value for “547958 (e[5mC]*eA*kG*dG*dT*dT*dA*dA*dA*dA*dG*dG*d[5mC]*kT*kA*eT; antisense) [compound 547958]” was 57%; that for “547959 (eG*e[5mC]*kA*dG*dG*dT*dT*dA*dA*dA*dA*dG*dG*k[5mC]*kT*eA; antisense) [compound 547959]” was 60%; that for “547960 (eT*eG*k[5mC]*dA*dG*dG*dT*dT*dA*dA*dA*dA*dG*kG*k[5mC]*eT; antisense) [compound 547960]” was 40%. As for “547961 (eT*eT*kG*d[5mC]*dA*dG*dG*dT*dT*dA*dA*dA*dA*kG*kG*e[5mC]; antisense) [compound 547961]”, the “% inhibition” value worked out at 5%. The same measure, in the same setting: the value for “547962 (antisense eT*eT*kT*dG*d[5mC]*dA*dG*dG*dT*dT*dA*dA*dA*kA*kG*eG) [compound 547962]” was 16%; that for “547963 (antisense eG*eT*kT*d[5mC]*dA*dG*dG*dT*dA*dA*dA*dG*dT*kT*k[5mC]*eT) [compound 547963]” was 22%. With “547964 (antisense eG*eG*kT*dT*d[5mC]*dA*dG*dG*dT*dA*dA*dA*dG*kT*kT*e[5mC]) [compound 547964]”, the “% inhibition” value came out at 0%. Same read-out and setting: the value for “547965 (antisense eG*eG*kG*dT*dT*d[5mC]*dA*dG*dG*dT*dA*dA*dA*kG*kT*eT) [compound 547965]” was 29%; that for “547966 (antisense eA*eG*kG*dG*dT*dT*d[5mC]*dA*dG*dG*dT*dA*dA*kA*kG*eT) [compound 547966]” was 13%. In the case of “547967 (antisense eG*eG*k[5mC]*dA*dG*dG*dG*dT*dT*d[5mC]*dA*dG*dG*kT*kA*eA) [compound 547967]”, the “% inhibition” value worked out at 25%. Turning to “547968 (antisense eT*eT*kA*dG*dA*dA*dT*dG*dG*d[5mC]*dA*dG*dG*kG*kT*eT) [compound 547968]”, the “% inhibition” value came to 37%. In the case of “547969 (antisense eT*e[5mC]*k[5mC]*d[5mC]*dG*dG*dG*dT*dA*dA*dA*dT*dT*kT*kT*eA) [compound 547969]”, the “% inhibition” value came out at 0%. Regarding “547970 (antisense e[5mC]*eT*k[5mC]*d[5mC]*d[5mC]*dG*dG*dG*dT*dA*dA*dA*dT*kT*kT*eT) [compound 547970]”, the “% inhibition” value is listed as 42%. Regarding “547972 (antisense eT*e[5mC]*kA*dA*d[5mC]*dT*d[5mC]*d[5mC]*d[5mC]*dG*dG*dG*dT*kA*kA*eA) [compound 547972]”, the “% inhibition” value was 49%. The same measure, in the same setting: the value for “547973 (antisense eA*eA*kG*dT*d[5mC]*dA*dA*d[5mC]*dT*d[5mC]*d[5mC]*d[5mC]*dG*kG*kG*eT) [compound 547973]” was 62%; that for “547974 (antisense eA*eA*kA*dG*dT*d[5mC]*dA*dA*d[5mC]*dT*d[5mC]*d[5mC]*d[5mC]*kG*kG*eG) [compound 547974]” was 52%; that for “547975 (antisense e[5mC]*eA*kA*dA*dG*dT*d[5mC]*dA*dA*d[5mC]*dT*d[5mC]*d[5mC]*k[5mC]*kG*eG) [compound 547975]” was 44%.

As to “547976 (antisense e[5mC]*e[5mC]*kA*dA*dA*dG*dT*d[5mC]*dA*dA*d[5mC]*dT*d[5mC]*k[5mC]*k[5mC]*eG) [compound 547976]”, the “% inhibition” value was found to be 49%. Take “547977 (antisense e[5mC]*e[5mC]*kT*d[5mC]*d[5mC]*dA*dA*dA*dG*dT*d[5mC]*dA*dA*k[5mC]*kT*e[5mC]) [compound 547977]”: the “% inhibition” value came out at 57%. In the case of “547978 (antisense e[5mC]*eT*kT*dG*dG*d[5mC]*dA*dA*dA*d[5mC]*dA*dT*dT*k[5mC]*kA*e[5mC]) [compound 547978]”, the “% inhibition” value is listed as 71%. The same measure, in the same setting: the value for “547980 (antisense eA*eA*kG*dT*d[5mC]*dT*d[5mC]*dT*dT*dG*dG*d[5mC]*dA*kA*kA*e[5mC]) [compound 547980]” was 54%.

Regarding “547981 (antisense eT*e[5mC]*kT*dT*dT*dG*dT*dG*d[5mC]*dA*dA*dG*dT*k[5mC]*kT*e[5mC]) [compound 547981]”, the “% inhibition” value came to 76%.

“547982 (antisense eA*eA*kT*d[5mC]*dA*dT*d[5mC]*dT*dT*dT*dG*dT*dG*k[5mC]*kA*eA) [compound 547982]”: the “% inhibition” value was determined as 54%. Still for that read-out and setting: the value for “547983 (antisense eG*eA*kA*dT*d[5mC]*dA*dT*d[5mC]*dT*dT*dT*dG*dT*kG*k[5mC]*eA) [compound 547983]” was 56%; that for “547984 (antisense e[5mC]*eG*kA*dA*dT*d[5mC]*dA*dT*d[5mC]*dT*dT*dT*dG*kT*kG*e[5mC]) [compound 547984]” was 55%. Still for that read-out and setting: the value for “547985 (antisense eG*e[5mC]*kG*dA*dA*dT*d[5mC]*dA*dT*d[5mC]*dT*dT*dT*kG*kT*eG) [compound 547985]” was 63%. Turning to “547986 (antisense e[5mC]*eA*kG*d[5mC]*dG*dA*dA*dT*d[5mC]*dA*dT*d[5mC]*dT*kT*kT*eG) [compound 547986]”, the “% inhibition” value is 63%.

For the substance “547987 (antisense eA*e[5mC]*kA*dG*d[5mC]*dG*dA*dA*dT*d[5mC]*dA*dT*d[5mC]*kT*kT*eT) [compound 547987]”, the “% inhibition” value was determined as 64%. The same measure, in the same setting: the value for “547988 (antisense eT*eG*kA*d[5mC]*dA*dG*d[5mC]*dG*dA*dA*dT*d[5mC]*dA*kT*k[5mC]*eT) [compound 547988]” was 56%; that for “547989 (antisense e[5mC]*eT*kG*dA*d[5mC]*dA*dG*d[5mC]*dG*dA*dA*dT*d[5mC]*kA*kT*e[5mC]) [compound 547989]” was 66%. Regarding “547990 (antisense eA*e[5mC]*kT*dG*dA*d[5mC]*dA*dG*d[5mC]*dG*dA*dA*dT*k[5mC]*kA*eT) [compound 547990]”, the “% inhibition” value stood at 58%.

“547991 (antisense eT*eA*k[5mC]*dA*dG*dT*d[5mC]*dT*dT*d[5mC]*dT*dG*dG*kG*kA*eG) [compound 547991]”: the “% inhibition” value amounted to 0%. Still for that read-out and setting: the value for “547992 (antisense e[5mC]*e[5mC]*kT*dT*dA*d[5mC]*dA*dG*dT*d[5mC]*dT*dT*d[5mC]*kT*kG*eG) [compound 547992]” was 17%; that for “547993 (antisense eT*eA*kG*dA*dT*dA*dA*dT*d[5mC]*dT*dT*dA*dA*kG*kA*eA) [compound 547993]” was 26%. Still for that read-out and setting: the value for “547994 (antisense e[5mC]*e[5mC]*kA*dT*d[5mC]*d[5mC]*dA*dT*dA*dG*dA*dT*dA*kA*kT*e[5mC]) [compound 547994]” was 53%. The same measure, in the same setting: the value for “547995 (antisense eG*eT*kG*dT*d[5mC]*d[5mC]*d[5mC]*dA*dT*dA*d[5mC]*dG*d[5mC]*kA*kA*eT) [compound 547995]” was 64%; that for “547996 (antisense eT*eG*kT*dG*dT*d[5mC]*d[5mC]*d[5mC]*dA*dT*dA*d[5mC]*dG*k[5mC]*kA*eA) [compound 547996]” was 65%.

Staying with this series, now noted: HepaRG cells, electroporation with 1,000 nM antisense oligonucleotide, approximately 24 hours, primer probe set RTS3454, relative to untreated control cells; experiment of Table 24.
As for “547999 (antisense e[5mC]*e[5mC]*kT*dT*dG*dT*dG*dT*d[5mC]*d[5mC]*d[5mC]*dA*dT*kA*k[5mC]*eG) [compound 547999]”, the “% inhibition” value is recorded as 50%. Consider “548000 (antisense e[5mC]*e[5mC]*k[5mC]*dT*dT*dG*dT*dG*dT*d[5mC]*d[5mC]*d[5mC]*dA*kT*kA*e[5mC]) [compound 548000]”, for which the “% inhibition” value is reported as 54%.
